Assays:
[1] = system: ICR male mouse; test: PBQ-induced writhing test (analgesic efficacy); type: in vivo; details: oral administration, PBQ 0.02% intraperitoneal
Description: In order to test analgesic efficacy of the biaryl benzoimidazole derivative of the invention, a PBQ-induced writhing test was performed using a mouse.
A 5-week-old ICR male mouse was used as an experimental animal, and PBQ (phenyl-p-quinone, 0.02%) was used as a chemical stimulator. 20 mg of the test material per mouse body weight were suspended in 10 mL solvent of Na-CMC and saline solution, and then used. […] Between 5 to 10 minutes after administration, the writhing frequency of each subject of the experimental groups was measured, and for the measurement of the analgesic efficacy, the frequency reduction was calculated as compared to a control group by using Equation 1. Inhibitory effect (%)=[(a control group administered with excipient−a group administered with test material)/a control group administered with excipient]×100 [Equation 1]

[2] = target: T1, human vanilloid receptor VR-1 (hVR1) (Homo sapiens, UniProt Q8NER1); test: Calcium influx test of vanilloid receptor (capsaicin-induced, Fluo-3/AM, hVR1-HEK293 cells); type: cell-based; details: for IC50: calcium influx induced by 1 μM capsaicin, read-out: Inhibitory effect IC50 (nM) on calcium influx; for inhibition at 0.2 µM: single concentration of compound 200 nM, 1 μM capsaicin, read-out: Inhibitory effect (%) on calcium influx
T1 construct: expressed in transfected cells; host or cells: HEK293 Tet-on cells (hVR1-HEK293), expression induced with doxycycline
Description: In order to measure an activity of the biaryl benzoimidazole derivative of the invention as an antagonist, a calcium influx test was performed.
An hVR1-HEK293 cell line is a cell line, in which a Human Embryonic Kidney (HEK) 293 Tet-on cell is transformed with a human vanilloid-1 gene (pTRE2hyg-hVR1, 7.8 kb). The cell line can regulate a VR-1 expression, depending on the administration of a tetracycline analogue, doxycycline. At two days before the calcium influx test, the cell line was cultured in media containing doxycycline to induce the VR-1 expression, and then used. First, the hVR1-HEK293 cells were cultured in T75 flasks to have a density of about 80%, and then detached from the bottom of the flasks by using trypsin. The detached cells were centrifuged and collected. Then, the cells were suspended in media containing 1 μg/mL doxycycline, and diluted to have a concentration of 2×10^5 to 4×10^5 cells/mL. 100 μL of the suspended cells were added to each well of 96-well black plate, cultured at 37° C. and 5% CO2 cell incubator for two days, and then used in the calcium influx test.
The compound was dissolved in dimethyl sulfoxide (DMSO), and then used for the calcium influx test.
In order to measure the calcium influx […], the cells were cultured in a solution containing Fluo-3/AM, which is a calcium indicator, at 37° C. for 90 minutes, so as to be permeated by a fluorescent dye. […] 193 μL D-PBS were added to each well, and then the compound was added thereto in various concentrations. To measure an activity as an antagonist, the cells were treated with 1 μM capsaicin to stimulate the calcium influx. The inhibitory effect of the compound when calcium influx was induced by 1 μM capsaicin was measured depending on its concentration using a fluorescence spectrometer, and the obtained data were substituted into a hill equation to analyze the values.
The inhibitory effect on calcium influx was measured with a single concentration of the compounds of the invention (200 nM), and the result thereof are shown in Table 2.

T1 sequence (Q8NER1 whole entry): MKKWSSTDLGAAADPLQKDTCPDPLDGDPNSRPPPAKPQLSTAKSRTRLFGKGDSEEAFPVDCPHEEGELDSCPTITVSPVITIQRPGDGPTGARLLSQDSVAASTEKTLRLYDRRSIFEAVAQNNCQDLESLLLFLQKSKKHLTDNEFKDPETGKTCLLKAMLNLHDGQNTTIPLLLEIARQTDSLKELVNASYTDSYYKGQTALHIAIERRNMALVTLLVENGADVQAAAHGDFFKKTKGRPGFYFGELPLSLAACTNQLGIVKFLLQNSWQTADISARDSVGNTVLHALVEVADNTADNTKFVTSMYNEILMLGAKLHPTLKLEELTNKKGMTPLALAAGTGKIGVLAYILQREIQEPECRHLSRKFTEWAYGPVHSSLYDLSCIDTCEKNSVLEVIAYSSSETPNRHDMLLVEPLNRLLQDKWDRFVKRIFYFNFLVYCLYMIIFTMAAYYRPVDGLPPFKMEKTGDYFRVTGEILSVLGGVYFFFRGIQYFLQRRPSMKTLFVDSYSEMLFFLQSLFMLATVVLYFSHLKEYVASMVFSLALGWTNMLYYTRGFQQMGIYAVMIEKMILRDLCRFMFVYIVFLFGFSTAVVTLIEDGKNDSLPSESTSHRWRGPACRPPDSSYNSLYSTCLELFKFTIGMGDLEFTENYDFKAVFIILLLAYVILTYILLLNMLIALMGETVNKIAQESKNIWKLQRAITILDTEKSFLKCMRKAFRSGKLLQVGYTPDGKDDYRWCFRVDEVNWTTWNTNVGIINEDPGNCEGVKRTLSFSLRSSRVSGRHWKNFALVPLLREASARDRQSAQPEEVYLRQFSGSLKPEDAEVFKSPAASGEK

| Structure (SMILES) | IC50 [2] [nM] | inhibition at 0.2 µM [2] [%] | Inhibitory effect (%) on writhing frequency ([1]; (1 hour)) | Inhibitory effect (%) on writhing frequency ([1]; (2 hour)) | Inhibitory effect (%) on writhing frequency ([1]; (0.5 hour)) |
| --- | --- | --- | --- | --- | --- |
| CC(C)(C)c1ccc2nc(-c3ccc(-c4ncc(CO)cc4Cl)cc3)[nH]c2c1 [Compound 29, {6-[4-(6-tert-butyl-1H-benzoimidazol-2-yl)-phenyl]-5-chloro-pyridin-3-yl}-methanol] | 15.9 | 74.8 | 59 (1 hour) % |  |  |
| COC(=O)c1cnc(-c2ccc(-c3nc4ccc(Br)cc4[nH]3)cc2)c(Cl)c1 [Compound 50, 6-[4-(6-bromo-1H-benzoimidazol-2-yl)-phenyl]-5-chloro-nicotinic acid methyl ester] | 62.3 | 46.4 | 19 (1 hour) % |  |  |
| CC(=O)OCc1cnc(-c2ccc(-c3nc4ccc(C(F)(F)F)cc4[nH]3)cc2)c(Cl)c1 [Compound 53, acetic acid 5-chloro-6-[4-(6-trifluoromethyl-1H-benzoimidazol-2-yl)-phenyl]-pyridin-3-yl methyl ester] | 90.4 | 37.4 |  | 34 (2 hour) % |  |
| COC(=O)c1cnc(-c2ccc(-c3nc4ccc(N5CCN(C)CC5)cc4[nH]3)nc2)c(Cl)c1 [Compound 72, 3-chloro-6′-[6-(4-methyl-piperazin-1-yl)-1H-benzoimidazol-2-yl]-[2,3′]bipyridinyl-5-carboxylic acid methyl ester] |  | -2.9 |  |  | 31 (0.5 hour) % |
| OCc1cnc(-c2ccc(-c3nc4ccc(C(F)(F)F)cc4[nH]3)nc2)c(Cl)c1 [Compound 89, [3-chloro-6′-(6-trifluoromethyl-1H-benzoimidazol-2-yl)-[2,3′]bipyridinyl-5-yl]-methanol] | 338 | 30 |  |  |  |
| CC(C)(C)c1ccc2nc(-c3ccc(-c4ncc(CO)cc4Cl)cn3)[nH]c2c1 [Compound 90, [6′-(6-tert-butyl-1H-benzoimidazol-2-yl)-3-chloro-[2,3′]bipyridinyl-5-yl]-methanol] | 158 | 42.7 |  |  |  |
| OCc1cnc(-c2ccc(-c3nc4ccc(Br)cc4[nH]3)nc2)c(Cl)c1 [Compound 91, [6′-(6-bromo-1H-benzoimidazol-2-yl)-3-chloro-[2,3′]bipyridinyl-5-yl]-methanol] | 517 | 27.6 |  |  |  |
| OCc1cnc(-c2ccc(-c3nc4ncc(Br)cc4[nH]3)nc2)c(Cl)c1 [Compound 92, [6′-(6-bromo-1H-imidazo[4,5-b]pyridin-2-yl)-3-chloro-[2,3′]bipyridinyl-5-yl]-methanol] |  | 7.3 |  |  |  |
| OCc1cnc(-c2ccc(-c3nc4c(Br)cc(Br)cc4[nH]3)nc2)c(Cl)c1 [Compound 94, [3-chloro-6′-(4,6-dibromo-1H-benzoimidazol-2-yl)-[2,3′]bipyridinyl-5-yl]-methanol] |  | 9.8 |  |  |  |
| CCNC(=O)c1cnc(-c2ccc(-c3nc4ccc(N5CCOCC5)cc4[nH]3)nc2)c(Cl)c1 [Compound 95, 3-chloro-6′-(6-morpholin-4-yl-1H-benzoimidazol-2-yl)-[2,3′]bipyridinyl-5-carboxylic acid ethyl amide] |  | -0.6 |  |  |  |
| CCNC(=O)c1cnc(-c2ccc(-c3nc4ccc(C(F)(F)F)cc4[nH]3)nc2)c(Cl)c1 [Compound 97, 3-chloro-6′-(6-trifluoromethyl-1H-benzoimidazol-2-yl)-[2,3′]bipyridinyl-5-carboxylic acid ethyl amide] |  | 13.3 |  |  |  |
| CCNC(=O)c1cnc(-c2ccc(-c3nc4ccc(C(C)(C)C)cc4[nH]3)nc2)c(Cl)c1 [Compound 98, 6′-(6-tert-butyl-1H-benzoimidazol-2-yl)-3-chloro-[2,3′]bipyridinyl-5-carboxylic acid ethyl amide] |  | 13.2 |  |  |  |
| CCNC(=O)c1cnc(-c2ccc(-c3nc4ncc(Br)cc4[nH]3)nc2)c(Cl)c1 [Compound 100, 6′-(6-bromo-1H-imidazo[4,5-b]pyridin-2-yl)-3-chloro-[2,3′]bipyridinyl-5-carboxylic acid ethyl amide] |  | 13 |  |  |  |
| CCNC(=O)c1cnc(-c2ccc(-c3nc4c(Br)cc(C(F)(F)F)cc4[nH]3)nc2)c(Cl)c1 [Compound 101, 6′-(4-bromo-6-trifluoromethyl-1H-benzoimidazol-2-yl)-3-chloro-[2,3′]bipyridinyl-5-carboxylic acid ethyl amide] |  | 3.7 |  |  |  |

Second part, led by results:

| IC50 [2] [nM] | inhibition at 0.2 µM [2] [%] | Structure (SMILES) | Inhibitory effect (%) on writhing frequency ([1]; (1 hour)) | Inhibitory effect (%) on writhing frequency ([1]; (2 hour)) | Inhibitory effect (%) on writhing frequency ([1]; (0.5 hour)) |
| --- | --- | --- | --- | --- | --- |
| 55.1 | 38.7 | COC(=O)c1cnc(-c2ccc(-c3nc4ccc(C(F)(F)F)cc4[nH]3)cc2)c(Cl)c1 [Compound 48, 5-chloro-6-[4-(6-trifluoromethyl-1H-benzoimidazol-2-yl)-phenyl]-nicotinic acid methyl ester] | 41 (1 hour) % |  |  |
| 23.1 | 85 | COC(=O)c1cnc(-c2ccc(-c3nc4ccc(C(C)(C)C)cc4[nH]3)cc2)c(Cl)c1 [Compound 49, 6-[4-(6-tert-butyl-1H-benzoimidazol-2-yl)-phenyl]-5-chloro-nicotinic acid methyl ester] |  | 49 (2 hour) % |  |
| 55.2 | 56.1 | COC(=O)c1cnc(-c2ccc(-c3nc4ccc(C(F)(F)F)cc4[nH]3)nc2)c(Cl)c1 [Compound 73, 3-chloro-6′-(6-trifluoromethyl-1H-benzoimidazol-2-yl)-[2,3′]bipyridinyl-5-carboxylic acid methyl ester] | 39 (1 hour) % |  |  |
| 129 | 41 | OCc1cnc(-c2ccc(-c3nc4c(Br)cc(C(F)(F)F)cc4[nH]3)nc2)c(Cl)c1 [Compound 93, [6′-(4-bromo-6-trifluoromethyl-1H-benzoimidazol-2-yl)-3-chloro-[2,3′]bipyridinyl-5-yl]-methanol] |  |  |  |
|  | 17.5 | CCNC(=O)c1cnc(-c2ccc(-c3nc4ccc(Br)cc4[nH]3)nc2)c(Cl)c1 [Compound 99, 6′-(6-bromo-1H-benzoimidazol-2-yl)-3-chloro-[2,3′]bipyridinyl-5-carboxylic acid ethyl amide] |  |  |  |
|  | 13.2 | CCNC(=O)c1cnc(-c2ccc(-c3nc4c(Br)cc(Br)cc4[nH]3)nc2)c(Cl)c1 [Compound 102, 3-chloro-6′-(4,6-dibromo-1H-benzoimidazol-2-yl)-[2,3′]bipyridinyl-5-carboxylic acid ethyl amide] |  |  |  |
